Test results taken from patent US20220175667A1, “Extracellular Matrices, Uses Thereof, and Methods of Making Extracellular Matrices” (Johns Hopkins University, priority 2019, published 2022).

Assay: Reactivity of valsartan under EMR curing conditions
Type: physicochemical
Conditions: mixed with dextramate, PEGDA, Irgacure; cured for 10 minutes
Method: Dextramate (24.2 mL of a 23.1 w/w % solution), PEGDA (16.3 mL of a 8.6 w/w % solution), Irgacure (14 mL of a 0.5 w/w % solution), and valsartan (2.82 mL or 1.41 mL of a 24.8 w/w % solution or 2.82 mL of a 1:10 dilution of a 24.8 w/w % solution) are mixed together. The mixture is cured for 10 minutes. After curing, 100 mL of dH2O is added to the cured product to create a swelled gel.

With `CCCCC(=O)N(Cc1ccc(-c2ccccc2-c2nnn[nH]2)cc1)[C@H](C(=O)O)C(C)C` [valsartan] the “reactivity under the curing conditions” value was “does not exhibit reactivity”.
